# Structures can show the parent of a compound that is named as a salt. Where two headings read alike, the source gives them in different places.
# Tests used:
# [1] = tested on: iCell endothelial cells (human iPSC-derived ECs); assay: High-content imaging cytotoxicity in iCell endothelial cells, 24 h; format: cell-based; details: Homo sapiens, Endothelial cell, iPSC-EC, 24 hr; for viability at 0.1 µM / activity at 0.1 µM: 0.10 µM; for minimal effective concentration: top concentration 100.00 µM
# In short: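 Human iPSC-derived endothelial cells (passages 1–5) were grown to a fibronectin-coated monolayer, then exposed 24 h at 37 °C with 0.5% DMSO vehicle. Staining was Hoechst 33342, MitoTracker Orange and calcein AM, read by high-content imaging. Point of departure came from 4-parameter logistic fits, with a 1-SD vehicle cutoff and 100 µM as the top concentration.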
# [2] = tested on: iCell endothelial cells (human iPSC-derived ECs); assay: Tube formation (tubulogenesis) assay in iCell endothelial cells, 18 h; format: cell-based; details: Homo sapiens, Endothelial cell, iPSC-EC tube formation, 18 hr; for activity at 0.1 µM: 0.10 µM; for minimal effective concentration: top concentration 100.00 µM
# In short: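 iCell ECs (passages 1–5) seeded 7,500 cells/well on reduced-growth-factor Geltrex in starvation medium, exposed overnight at 37°C to compounds in triplicate concentration–response (0.5% DMSO vehicle). Calcein AM staining, 4× imaging, angiogenesis image analysis; readouts normalized to vehicle, four-parameter logistic fit, POD at 1 SD of vehicle; 100 μM assigned NOAEL if no response.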
# [3] = 0.00 µM control = 100.00, read-out: endo.cyto.24hr
# [4] = 0.00 µM control = 100.00, read-out: endo.mito.24hr
# [5] = 0.00 µM control = 100.00, read-out: endo.mitoint.24hr
# [6] = 0.00 µM control = 100.00, read-out: endo.nma.24hr
# [7] = 0.00 µM control = 100.00, read-out: endo.tc.24hrs
# [8] = read-out: endo.mitoint.24hr POD
# [9] = 0.00 µM control = 100.00, read-out: endo.mtl.18hr
# [10] = 0.00 µM control = 100.00, read-out: endo.tlps.18hr
# [11] = 0.00 µM control = 100.00, read-out: endo.tta.18hr
# [12] = 0.00 µM control = 100.00, read-out: endo.ttl.18hr
compound,measurement,setting,value
Clc1cccc(-c2cccc(Cl)c2)c1 [PCB11],viability at 0.01 µM,[1]; [3],99.3%
same,activity at 0.01 µM,[1]; [4],99.6%
same,activity at 0.01 µM,[1]; [5],100%
same,activity at 0.01 µM,[1]; [6],101%
same,viability at 0.01 µM,[1]; [7],99.3%
same,viability at 0.1 µM,[1]; [3],95.3%
same,activity at 0.1 µM,[1]; [4],96%
same,activity at 0.1 µM,[1]; [5],97.8%
same,activity at 0.1 µM,[1]; [6],102%
same,viability at 0.1 µM,[1]; [7],95.3%
same,viability at 1 µM,[1]; [3],96.6%
same,activity at 1 µM,[1]; [4],97%
same,activity at 1 µM,[1]; [5],96.1%
same,activity at 1 µM,[1]; [6],99.7%
same,viability at 1 µM,[1]; [7],96.6%
same,viability at 10 µM,[1]; [3],99%
same,activity at 10 µM,[1]; [4],99.4%
same,activity at 10 µM,[1]; [5],107%
same,activity at 10 µM,[1]; [6],100%
same,viability at 10 µM,[1]; [7],99%
same,viability at 100 µM,[1]; [3],104%
same,activity at 100 µM,[1]; [4],105%
same,activity at 100 µM,[1]; [5],92.6%
same,activity at 100 µM,[1]; [6],100%
same,viability at 100 µM,[1]; [7],104%
same,minimal effective concentration,[1]; read-out: endo.cyto.24hr POD,100 µM
same,minimal effective concentration,[1]; read-out: endo.mito.24hr POD,100 µM
same,minimal effective concentration,[1]; [8],100 µM
same,minimal effective concentration,[1]; read-out: endo.nma.24hr POD,100 µM
same,minimal effective concentration,[1]; read-out: endo.tc.24hrs POD,100 µM
same,activity at 0.01 µM,[2]; [9],98.5%
same,activity at 0.01 µM,[2]; [10],118%
same,activity at 0.01 µM,[2]; [11],148%
same,activity at 0.01 µM,[2]; [12],143%
same,activity at 0.1 µM,[2]; [9],102%
same,activity at 0.1 µM,[2]; [10],117%
same,activity at 0.1 µM,[2]; [11],118%
same,activity at 0.1 µM,[2]; [12],116%
same,activity at 1 µM,[2]; [9],105%
same,activity at 1 µM,[2]; [10],125%
same,activity at 1 µM,[2]; [11],132%
same,activity at 1 µM,[2]; [12],126%
same,activity at 10 µM,[2]; [9],91.6%
same,activity at 10 µM,[2]; [10],140%
same,activity at 10 µM,[2]; [11],80.8%
same,activity at 10 µM,[2]; [12],80.3%
same,activity at 100 µM,[2]; [9],105%
same,activity at 100 µM,[2]; [10],114%
same,activity at 100 µM,[2]; [11],150%
same,activity at 100 µM,[2]; [12],150%
same,minimal effective concentration,[2]; read-out: endo.mtl.18hr POD,100 µM
same,minimal effective concentration,[2]; read-out: endo.tlps.18hr POD,100 µM
same,minimal effective concentration,[2]; read-out: endo.tta.18hr POD,100 µM
same,minimal effective concentration,[2]; read-out: endo.ttl.18hr POD,100 µM
O=S(=O)(O)Oc1ccc(-c2cccc(Cl)c2)cc1Cl [4-yl PCB 11 sulfate],viability at 0.01 µM,[1]; [3],96.1%
same,activity at 0.01 µM,[1]; [4],96.2%
same,activity at 0.01 µM,[1]; [5],99.7%
same,activity at 0.01 µM,[1]; [6],103%
same,viability at 0.01 µM,[1]; [7],96.1%
same,viability at 0.1 µM,[1]; [3],102%
same,activity at 0.1 µM,[1]; [4],101%
same,activity at 0.1 µM,[1]; [5],90.5%
same,activity at 0.1 µM,[1]; [6],102%
same,viability at 0.1 µM,[1]; [7],102%
same,viability at 1 µM,[1]; [3],98%
same,activity at 1 µM,[1]; [4],97.8%
same,activity at 1 µM,[1]; [5],90.8%
same,activity at 1 µM,[1]; [6],103%
same,viability at 1 µM,[1]; [7],98%
same,viability at 10 µM,[1]; [3],104%
same,activity at 10 µM,[1]; [4],104%
same,activity at 10 µM,[1]; [5],87.3%
same,activity at 10 µM,[1]; [6],98.8%
same,viability at 10 µM,[1]; [7],104%
same,viability at 100 µM,[1]; [3],98.5%
same,activity at 100 µM,[1]; [4],98.6%
same,activity at 100 µM,[1]; [5],84.2%
same,activity at 100 µM,[1]; [6],99.3%
same,viability at 100 µM,[1]; [7],98.5%
same,minimal effective concentration,[1]; read-out: endo.cyto.24hr POD,100 µM
same,minimal effective concentration,[1]; read-out: endo.mito.24hr POD,100 µM
same,minimal effective concentration,[1]; [8],100 µM
same,minimal effective concentration,[1]; read-out: endo.nma.24hr POD,100 µM
same,minimal effective concentration,[1]; read-out: endo.tc.24hrs POD,100 µM
same,activity at 0.01 µM,[2]; [9],107%
same,activity at 0.01 µM,[2]; [10],113%
same,activity at 0.01 µM,[2]; [11],174%
same,activity at 0.01 µM,[2]; [12],179%
same,activity at 0.1 µM,[2]; [9],122%
same,activity at 0.1 µM,[2]; [10],98.8%
same,activity at 0.1 µM,[2]; [11],119%
same,activity at 0.1 µM,[2]; [12],124%
same,activity at 1 µM,[2]; [9],113%
same,activity at 1 µM,[2]; [10],103%
same,activity at 1 µM,[2]; [11],124%
same,activity at 1 µM,[2]; [12],128%
same,activity at 10 µM,[2]; [9],94.3%
same,activity at 10 µM,[2]; [10],82.5%
same,activity at 10 µM,[2]; [11],91.7%
same,activity at 10 µM,[2]; [12],93.7%
same,activity at 100 µM,[2]; [9],68.5%
same,activity at 100 µM,[2]; [10],27.8%
same,activity at 100 µM,[2]; [11],26.5%
same,activity at 100 µM,[2]; [12],25.6%
same,minimal effective concentration,[2]; read-out: endo.mtl.18hr POD,25.3 µM
same,minimal effective concentration,[2]; read-out: endo.tlps.18hr POD,12.7 µM
same,minimal effective concentration,[2]; read-out: endo.tta.18hr POD,21 µM
same,minimal effective concentration,[2]; read-out: endo.ttl.18hr POD,25.6 µM

# Reference: PMC7377239, “Cardiovascular Effects of Polychlorinated Biphenyls and Their Major Metabolites” (Environmental Health Perspectives, 2020)
